Data as given in US20150374676A1, “HELICASE-PRIMASE INHIBITORS FOR USE IN A METHOD OF TREATING ALZHEIMER'S DISEASE” (AICURIS GMBH & CO. KG, priority 2013, published 2015).

Key:
[1] = fraction unbound in murine plasma; type: in vitro ADME; details: mouse
[2] = fraction unbound in cell culture medium; type: in vitro ADME

fraction unbound [1]: 0.028
fraction unbound [2]: 0.71
Compound: CS(=O)(=O)O.Cc1nc(N(C)C(=O)Cc2ccc(-c3ccccn3)cc2)sc1S(N)(=O)=O [mono mesylate monohydrate salt, N-[5-(aminosulfonyl)-4-methyl-1,3-thiazol-2-yl]-N-methyl-2-[4-(2-pyridinyl)-phenyl]acetamide mono methanesulfonic acid monohydrate]
